Here are results for 2 molecules from US20060167068A1, “Method of treating self-injurious behavior with glutamate modulating agents” (priority 2005, published 2006).

A short description of the data set: Case reports: glutamate modulating agent added to medication of patients with borderline personality disorder and self-injurious behavior. The data set is classed as in vivo, human. From the text: We describe two patients with borderline personality disorder and prominent cutting behaviors refractory to psychopharmacologic interventions.
Patient 1 was a person with a history of post-traumatic stress disorder and borderline personality disorder. […] They were previously treated with intensive psychotherapy, cognitive behavioral therapy, and pharmacotherapy. Medication management included treatment trials, either alone or in combination, of the following medications: CELEXA (citraloprom HBr), PROZAC (fluoxetine HCl), REMERON (mirtazapine), ZYPREXA (olanzapine), KLONOPIN (clonazepam), LAMICTAL (lamotrigine), RISPERDAL (risperidone), Abilify (aripiprazole), EFFEXOR (venlafaxine HCl), XANAX (alprazolam), WELLBUTRIN (bubroprion HCl), and ATIVAN (lorazepam). Medications provided little relief and their cutting behaviors continued on a daily to weekly basis. Riluzole, a glutamate modulating agent, was added to their medication regimen which consisted of LEXAPRO (escitalopram) 20 mg a day and KLONOPIN 1 mg at bedtime. Riluzole was dosed at 50 mg twice a day. […] This attenuation in their self-injurious behaviors occurred between week 2 and 3 of treatment with riluzole.
Despite the beneficial effects of riluzole with regard to the cutting/self-injurious behaviors (as well as cravings to cut), Patient 1 requested to stop the riluzole secondary to the sedation. Within 1 week of stopping the riluzole, their desire and cravings to cut returned. They were then treated with N-Acetyl Cysteine (NAC), another agent thought to modulate glutamatergic function.
Patient 2 was a person with a long history of borderline personality disorder, major depression, obsessive-compulsive disorder and generalized anxiety disorder. […] These self-injurious behaviors and the cravings to cut worsened under times of stress. They were previously treated with intensive psychotherapy, cognitive behavioral therapy, and pharmacotherapy. Medication management included treatment trials, either alone or in combination, of the following medications: EFFEXOR, ZOLOFT (sertaline HCl), TOPAMAX (topirimate), ATIVAN (lorazepam), trazodone, ABILIFY AND NEURONTIN (gabapentin). Riluzole, a glutamate modulating agent, was added to their medication regimen which consisted of ZOLOFT 200 mg each day, RISPERDAL (risperidone) 2 mg at bedtime, KLONOPIN 1 mg three times per day and PROVIGIL (modafinil) 200 mg a day. Riluzole was dosed at 50 mg twice a day. […] Similar to the first case, the cessation in self-injurious behaviors occurred between week 2 and 3 of treatment with riluzole.

Setting [1] is: Patient 1, riluzole 50 mg twice a day.

SMILES strings stand for the structures.

As for `CC(=O)N[C@@H](CS)C(=O)O` [NAC, N-Acetyl Cysteine], the “time of treatment until desire to cut remitted” value (Patient 1, NAC after stopping riluzole) is at most 2 weeks. Further, the “period without any self-injurious behaviors” value (Patient 1, on NAC) is given as “over three months”. Under “Patient 1, on NAC, desire to cut not completely eradicated as while on riluzole”, the “self-injurious cravings (self-report)” value is on record as “significantly attenuated”.

`Nc1nc2ccc(OC(F)(F)F)cc2s1` [riluzole, Riluzole]: the “time after stopping treatment until desire and cravings to cut returned” value (Patient 1, after stopping riluzole) is at most 1 week. In addition, under setting [1], the “adverse effect while on treatment” value was “significant sedation” and the “time on treatment without a single episode or desire to harm themself” value is recorded as “approximately eight weeks”. Besides, the “cravings to cut / self-injurious behaviors (patient report)” value (Patient 1, riluzole 50 mg twice a day added to LEXAPRO 20 mg a day and KLONOPIN 1 mg at bedtime) is on record as “complete cessation of cravings to cut”. Also, where the note is “Patient 2, riluzole 50 mg twice a day”, the “period without any self-injurious behaviors” value is given as “over six months”. For the setting “Patient 2, riluzole 50 mg twice a day added to ZOLOFT 200 mg, RISPERDAL 2 mg, KLONOPIN 1 mg three times per day, PROVIGIL 200 mg”, the “desire to engage in self-injurious behaviors (patient report)” value is listed as “complete cessation”. Also, the self-injurious behavior result (both cases (two patients with borderline personality disorder and cutting behaviors refractory to psychopharmacologic interventions), after initiating riluzole) is “significantly decreased”.
